Data reported in PubChem BioAssay (NCI).
Several values for one entry are separate records, joined by “and”; a condition that tells them apart may be missing. Equal values may be shown once.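 1) Cells in 96-well plates. 2) Compound, 48 h, 5 concentrations. 3) Linear interpolation between surrounding doses. 4) Unreached endpoint = highest concentration. Definition used: TGI = concentration required for complete inhibition of growth.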

Columns and labels:
Assay in all cases: NCI anticancer screen, dose series, 48 h
DLD-1 colon = test system: DLD-1 colon
SNB-78 CNS = test system: SNB-78 CNS
SK-OV-3 ovarian = test system: SK-OV-3 ovarian
UO-31 renal = test system: UO-31 renal
TK-10 renal = test system: TK-10 renal
NCI-H23 lung = test system: NCI-H23 lung
DMS 273 small cell lung = test system: DMS 273 small cell lung
DMS 114 small cell lung = test system: DMS 114 small cell lung
HOP-18 NSCLC = test system: HOP-18 NSCLC
M19-MEL melanoma = test system: M19-MEL melanoma
T-47D breast = test system: T-47D breast
NCI/ADR-RES ovarian = test system: NCI/ADR-RES ovarian
MDA-MB-435 = test system: MDA-MB-435

SMILES | TGI (DLD-1 colon) | TGI (SNB-78 CNS) | TGI (SK-OV-3 ovarian) | TGI (UO-31 renal) | TGI (TK-10 renal) | TGI (NCI-H23 lung) | TGI (DMS 273 small cell lung) | TGI (DMS 114 small cell lung) | TGI (HOP-18 NSCLC) | TGI (M19-MEL melanoma) | TGI (T-47D breast) | TGI (NCI/ADR-RES ovarian) | TGI (MDA-MB-435)
Cc1nnc2c3nnc(C)n3c3ccccc3n12 | > 100 µM | > 100 µM | > 100 µM | > 100 µM | > 100 µM | > 100 µM | > 100 µM | > 100 µM | – | – | – | – | –
O=S(=O)(O)c1ccc(N=Nc2nc(C(F)(F)F)c(C(F)(F)F)[nH]2)cc1 | > 100 µM | > 100 µM | > 100 µM | > 100 µM | > 100 µM | 68.7 µM | > 100 µM | 30.5 µM | > 100 µM | > 100 µM | – | – | –
CN(C)C(=Nc1nc(=[N+](C)C)ss1)N(C)C | > 100 µM | – | > 100 µM | > 100 µM | > 100 µM | > 100 µM | > 100 µM | > 100 µM | > 100 µM | > 100 µM | – | – | –
O=[N+]([O-])c1ccc(C2CC(c3ccccc3Cl)=Nc3ccccc3S2=O)cc1 (centres undefined) | 4.1 µM | 56 µM | 52.9 µM | 4.74 µM | 19.9 µM | 11.7 µM | 8.87 µM | 4.36 µM | 39.5 µM | 6.89 µM | 44.2 µM | – | –
COC(=O)C1=C(c2ccc(OC)c(OC)c2)OC(c2cc(OC)c(OC)c(OC)c2)C1 (centres undefined) | > 100 µM | 68.5 µM | 56.8 µM | > 100 µM | > 100 µM | > 100 µM | > 100 µM | > 100 µM | > 100 µM | > 100 µM | – | – | –
CN=C(NC(=S)N(C)C)N(C)C | > 100 µM | > 100 µM | > 100 µM | > 100 µM | > 100 µM | > 100 µM | > 100 µM | > 100 µM | > 100 µM | > 100 µM | – | – | –
CC(=O)NC1C(OCc2ccccc2)OC(CO)C(O)C1OC(C)C(=O)N[C@@H](C)C(=O)N[C@H](CCC(=O)OCCNc1c2ccccc2nc2cccc([N+](=O)[O-])c12)C(N)=O (some centres undefined) | 0.0128 µM | 0.0809 µM | 0.0288 µM | 0.0107 µM | 0.0631 µM | 0.00545 µM | 0.00433 µM | 0.00839 µM | 0.00289 µM and 0.00803 µM | – | – | – | –
C[N+](C)(C)CC1CCC/C1=N/O (centres undefined) | > 100 µM | > 100 µM | > 100 µM | > 100 µM | > 100 µM | > 100 µM | > 100 µM | 39 µM | > 100 µM | > 100 µM | – | – | –
O=C(CC1(O)C(=O)Nc2ccc(Br)cc21)c1ccc(Cl)cc1Cl (centres undefined) | > 100 µM | > 100 µM | > 100 µM | > 100 µM | > 100 µM | > 100 µM | – | 46.8 µM | – | 29.1 µM | – | – | –
CS(=O)(=O)NNS(=O)(=O)c1ccccc1 | > 100 µM | – | – | > 100 µM | > 100 µM | > 100 µM | > 100 µM | > 100 µM | – | > 100 µM | – | – | –
CCCCCCCCCCCCCCCCNCCCN(C)CCCN | 36 µM | 34.4 µM | 34.6 µM | 31.6 µM | 29.3 µM | 34.1 µM | 34.8 µM | 35.1 µM | – | 41.3 µM | – | – | –
COC(=O)CCC1CCc2c(OC)ccc(OC)c2C1=O (centres undefined) | > 100 µM | > 100 µM | > 100 µM | > 100 µM | > 100 µM | > 100 µM | > 100 µM | > 100 µM | – | – | – | – | –
O=C(CCC(=O)Nc1ccc(Cl)c(Cl)c1)CC(=O)c1ccc(F)cc1 | > 100 µM | > 100 µM | > 100 µM | > 100 µM | – | > 100 µM | > 100 µM | > 100 µM | > 100 µM | > 100 µM | – | – | –
N#CC1CCCCOCCOCCOCCOCCOCCCCCC1=O (centres undefined) | > 100 µM | > 100 µM | > 100 µM | > 100 µM | > 100 µM | > 100 µM | > 100 µM | > 100 µM | > 100 µM | > 100 µM | – | – | –
O=C1C2=C(c3ccccc31)C(c1ccccc1)N1C(=O)CSC1=N2 (centres undefined) | > 100 µM | – | > 100 µM | > 100 µM | > 100 µM | > 100 µM | > 100 µM | > 100 µM | – | > 100 µM | 77.6 µM | 59.1 µM | 37.3 µM
O=[N+]([O-])c1ccc(Cl)c(C2CC(c3cccc4ccccc34)=Nc3ccccc3S2)c1 (centres undefined) | 28.1 µM | > 66.7 µM | > 100 µM | > 66.8 µM | > 100 µM | 20.8 µM | > 100 µM | 84.5 µM | > 100 µM | > 66.1 µM | – | – | –
O=C(/C=C/c1ccco1)c1ccc(NCc2nc3ccccc3[nH]2)cc1 | 32.4 µM | 58.4 µM | 43.3 µM | 27.3 µM | 39.1 µM | 27.5 µM | 35.8 µM | 26 µM | 44.5 µM | 29.4 µM | – | – | –
CN(C)c1ccc(/C=C/c2ccc(/C=C/c3ccc(N(C)C)cc3)cc2)cc1 | > 100 µM | > 100 µM | > 100 µM | > 100 µM | > 100 µM | > 100 µM | > 100 µM | – | > 100 µM | > 100 µM | – | – | –
O=[N+]([O-])c1ccc(-c2noc(-c3ccc(Cl)cc3)c2C2=NCCN2)cc1 | > 100 µM | > 100 µM | – | > 100 µM | – | – | – | – | > 100 µM | > 100 µM | – | – | –
ON(Cc1ccccc1)C(=S)c1ccccc1 | > 100 µM | > 100 µM | > 100 µM | 37.9 µM | > 100 µM | 47.1 µM | > 76.5 µM | 9.55 µM | > 100 µM | > 100 µM | > 100 µM | – | –
O=C1NC(=O)C(=Nc2cccc3c(=O)[nH][nH]c(=O)c23)C(c2nc3ccccc3s2)C1=O (centres undefined) | > 100 µM | > 100 µM | > 100 µM | > 100 µM | > 100 µM | > 100 µM | > 100 µM | > 100 µM | > 100 µM | > 100 µM | – | – | –
